How the values were obtained:
Assay type in all cases: biochemical
PKR T384W = PKR T384W (Homo sapiens, UniProt P30613); assay: PKR T384W Single Point Percent Activation Assay; settings: compound at 1 μM
Protocol: PKR T384W Single Point Percent Activation Assay
(§1) A compound described herein was diluted with DMSO and tested at 1 μM concentration. The enzyme was diluted in 1× Buffer: (100 mM KCl, 50 mM Tris 7.5, 5 mM MgCl2, 1 mM DTT, 0.03% BSA). 2 μL of compound solution was first added into wells, and then 180 μL enzyme solution was added. Assays were assembled except for ADP, and plates were stored for 60 minutes at RT. 20 μL ADP was added to start the assay and assay output was evaluated using OD340 at SpectraMax. The assay was run at room temperature.
PKR T384W soluble (300 ng/well), Tris pH 7.5 (50 mM), KCl (100 mM), MgCl2 (5 mM), ADP (0.08 mM), PEP (0.23 mM), NADH (180 μM), LDH (0.5 units, Sigma 59023), DTT (1 mM) and BSA (0.03%).

PKR R532W = PKR R532W (Homo sapiens, UniProt P30613, R532W); assay: PKR R532W Single Point Percent Activation Assay; settings: compound at 1 μM; read-out: % Act. R532W
Sequence of PKR R532W (P30613 whole entry R532W): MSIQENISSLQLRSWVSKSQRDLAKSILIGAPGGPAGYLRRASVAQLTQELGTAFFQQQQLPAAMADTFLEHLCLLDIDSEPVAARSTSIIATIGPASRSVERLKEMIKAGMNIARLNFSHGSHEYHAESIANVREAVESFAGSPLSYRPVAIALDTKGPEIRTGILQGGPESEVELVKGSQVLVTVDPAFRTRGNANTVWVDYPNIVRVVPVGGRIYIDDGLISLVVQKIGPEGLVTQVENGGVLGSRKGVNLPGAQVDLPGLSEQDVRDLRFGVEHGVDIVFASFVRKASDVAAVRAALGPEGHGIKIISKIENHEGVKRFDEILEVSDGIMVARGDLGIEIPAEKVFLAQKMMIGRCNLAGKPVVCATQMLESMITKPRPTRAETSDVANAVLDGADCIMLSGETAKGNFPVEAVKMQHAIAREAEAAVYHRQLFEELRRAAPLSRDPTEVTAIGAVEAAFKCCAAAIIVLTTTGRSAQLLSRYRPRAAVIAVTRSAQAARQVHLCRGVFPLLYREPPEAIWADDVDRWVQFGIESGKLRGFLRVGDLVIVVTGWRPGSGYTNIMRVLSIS
Protocol: PKR R532W Single Point Percent Activation Assay
as §1, with “180 μL of enzyme solution” for “180 μL enzyme solution”
PKR R532W (100 ng/well), Tris pH 7.5 (50 mM), KCl (100 mM), MgCl2 (5 mM), ADP (0.36 mM), PEP (0.1 mM), NADH (180 μM), LDH (0.5 units, Sigma 59023), DTT (1 mM) and BSA (0.03%).

PKR R510Q = PKR R510Q (Homo sapiens, UniProt P30613, R510Q); assay: PKR R510Q Single Point Percent Activation Assay; settings: compound at 1 μM; read-out: % Act. R510Q
Sequence of PKR R510Q (P30613 whole entry R510Q): as the sequence (P30613 whole entry R532W) above, with R510Q, W532R counted along it
Protocol: PKR R510Q Single Point Percent Activation Assay
as §1, with “180 μL of enzyme solution” for “180 μL enzyme solution”
PKR R510Q (40 ng/well), Tris pH 7.5 (50 mM), KCl (100 mM), MgCl2 (5 mM), ADP (0.2 mM), PEP (0.11 mM), NADH (180 μM), LDH (0.5 units, Sigma 59023), DTT (1 mM) and BSA (0.03%).

PKR wt = PKR wt (Homo sapiens, UniProt P30613); assay: PKR WT Single Point Percent Activation Assay; settings: compound at 1 μM
Sequence of PKR wt (P30613 whole entry): as the sequence (P30613 whole entry R532W) above, with W532R counted along it
Protocol: PKR WT Single Point Percent Activation Assay
as §1, with “180 μL of enzyme solution” for “180 μL enzyme solution”
PKR wt (100 ng/well), Tris pH 7.5 (50 mM), KCl (100 mM), MgCl2 (5 mM), ADP (0.48 mM), PEP (0.15 mM), NADH (180 μM), LDH (0.5 units, Sigma 59023), DTT (1 mM) and BSA (0.03%).

Sequence of PKR T384W (P30613 whole entry T384M): as the sequence (P30613 whole entry R532W) above, with T384M, W532R counted along it

Row | SMILES | % Act. T384W (PKR T384W) | activation at 1 µM (PKR R532W) [%] | activation at 1 µM (PKR R510Q) [%] | activation at 1 µM (PKR wt) [%]
1 | O=C(OC1CN(C(=O)c2ccc(NS(=O)(=O)c3cccc4cccnc34)cc2)C1)c1ccccn1 | B (a % activation at 1 μM of from 101 to 500) | 1 to 100 | 101 to 500 | 101 to 500
2 | COC1(Cc2ccccc2)CN(C(=O)c2ccc(NS(=O)(=O)c3cccc4cccnc34)cc2)C1 | B (a % activation at 1 μM of from 101 to 500) | 101 to 500 | 101 to 500 | 101 to 500
3 | O=C(c1ccc(NS(=O)(=O)c2cccc3cccnc23)c(F)c1)N1CC(Oc2ccccc2)C1 | B (a % activation at 1 μM of from 101 to 500) | 101 to 500 | 101 to 500 | 101 to 500
4 | Cc1cc(C(=O)N2CC(N(C)Cc3ccccc3)C2)ccc1NS(=O)(=O)c1cccc2cccnc12 | A (a % activation at 1 μM of from 1 to 100) | 101 to 500 | 101 to 500 | 101 to 500
5 | Cc1cc(C(=O)N2CC(OC(=O)c3ccccn3)C2)ccc1NS(=O)(=O)c1cccc2cccnc12 | A (a % activation at 1 μM of from 1 to 100) | 1 to 100 | 101 to 500 | 1 to 100
6 | O=C(c1ccc(NS(=O)(=O)c2cccc3cccnc23)cc1)N1CC(Nc2ccccc2)C1 | A (a % activation at 1 μM of from 1 to 100) | 1 to 100 | 1 to 100 | 1 to 100
7 | COc1ccccc1NC1CN(C(=O)c2ccc(NS(=O)(=O)c3cccc4cccnc34)cc2)C1 | A (a % activation at 1 μM of from 1 to 100) | 1 to 100 | 101 to 500 | 1 to 100
8 | COc1ccccc1NC1CN(C(=O)c2ccc(NS(=O)(=O)c3cccc4cccnc34)c(C)c2)C1 | A (a % activation at 1 μM of from 1 to 100) | 1 to 100 | 101 to 500 | 1 to 100
9 | COc1ccccc1NC1CN(C(=O)c2ccc(NS(=O)(=O)c3cccc4cccnc34)c(F)c2)C1 | A (a % activation at 1 μM of from 1 to 100) | 1 to 100 | 1 to 100 | 1 to 100
10 | COc1ccccc1NC1CN(C(=O)c2ccc(S(=O)(=O)Nc3cccc4cccnc34)cc2)C1 | A (a % activation at 1 μM of from 1 to 100) | 101 to 500 | 101 to 500 | 101 to 500
11 | O=C(c1ccc(S(=O)(=O)Nc2cccc3cccnc23)cc1)N1CC(OCc2ccccc2)C1 | B (a % activation at 1 μM of from 101 to 500) | 1 to 100 | 101 to 500 | 101 to 500
12 | Cc1cc(C(=O)N2CC(OCc3ccccc3)C2)ccc1NS(=O)(=O)c1cccc2cccnc12 | B (a % activation at 1 μM of from 101 to 500) | 1 to 100 | 101 to 500 | 101 to 500
13 | O=C(NC1CN(C(=O)c2ccc(NS(=O)(=O)c3cccc4cccnc34)c(F)c2)C1)c1ccccn1 | B (a % activation at 1 μM of from 101 to 500) | 1 to 100 | 101 to 500 | 101 to 500
14 | CN(c1ccccc1)C1CN(C(=O)c2ccc(NS(=O)(=O)c3cccc4cccnc34)cc2)C1 | B (a % activation at 1 μM of from 101 to 500) | 101 to 500 | 101 to 500 | 101 to 500
15 | O=C(Cc1ccccc1)OC1CN(C(=O)c2ccc(NS(=O)(=O)c3cccc4cccnc34)cc2)C1 | B (a % activation at 1 μM of from 101 to 500) | 1 to 100 | 101 to 500 | 101 to 500
16 | O=C(OC1CN(C(=O)c2ccc(NS(=O)(=O)c3cccc4cccnc34)c(F)c2)C1)c1ccccn1 | B (a % activation at 1 μM of from 101 to 500) | 101 to 500 | 101 to 500 | 101 to 500

Row | SMILES | % Act. T384W (PKR T384W) | activation at 1 µM (PKR R532W) [%] | activation at 1 µM (PKR R510Q) [%] | activation at 1 µM (PKR wt) [%]
17 | O=C(c1ccc(NS(=O)(=O)c2cccc3cccnc23)cc1)N1CC(NCc2ccccc2)C1 | B (a % activation at 1 μM of from 101 to 500) | 101 to 500 | 101 to 500 | 101 to 500
18 | COc1ncccc1NC1CN(C(=O)c2ccc(NS(=O)(=O)c3cccc4cccnc34)c(C)c2)C1 | B (a % activation at 1 μM of from 101 to 500) | 101 to 500 | 101 to 500 | 101 to 500
19 | COc1cccnc1NC1CN(C(=O)c2ccc(NS(=O)(=O)c3cccc4cccnc34)c(C)c2)C1 | B (a % activation at 1 μM of from 101 to 500) | 101 to 500 | 101 to 500 | 101 to 500
20 | COc1ccccc1OC1CN(C(=O)c2ccc(NS(=O)(=O)c3cccc4cccnc34)cc2OC)C1 | B (a % activation at 1 μM of from 101 to 500) | 101 to 500 | 1 to 100 | 101 to 500
21 | Cc1cc(C(=O)N2CC(Nc3ccncc3)C2)ccc1NS(=O)(=O)c1cccc2cccnc12 | A (a % activation at 1 μM of from 1 to 100) | 1 to 100 | 1 to 100 | 101 to 500
22 | COc1ccncc1NC1CN(C(=O)c2ccc(NS(=O)(=O)c3cccc4cccnc34)c(C)c2)C1 | B (a % activation at 1 μM of from 101 to 500) | 1 to 100 | 1 to 100 | 101 to 500
23 | COc1ccccc1OC1CN(C(=O)c2ccc(NS(=O)(=O)c3cccc4cccnc34)c(F)c2)C1 | B (a % activation at 1 μM of from 101 to 500) | 101 to 500 | 1 to 100 | 101 to 500
24 | Cc1cc(C(=O)N2CC(OC(=O)Nc3ccccn3)C2)ccc1NS(=O)(=O)c1cccc2cccnc12 | A (a % activation at 1 μM of from 1 to 100) | 101 to 500 | 101 to 500 | 1 to 100
25 | COc1cc(C(=O)N2CC(OC(=O)Nc3ccccn3)C2)ccc1NS(=O)(=O)c1cccc2cccnc12 | A (a % activation at 1 μM of from 1 to 100) | 1 to 100 | 101 to 500 | 1 to 100
26 | COc1cc(NS(=O)(=O)c2cccc3cccnc23)ccc1C(=O)N1CC(OC(=O)Nc2ccccn2)C1 | B (a % activation at 1 μM of from 101 to 500) | 101 to 500 | 101 to 500 | 101 to 500
27 | COc1cc(C(=O)N2CC(Oc3ccccc3OC)C2)ccc1NS(=O)(=O)c1cccc2cccnc12 | B (a % activation at 1 μM of from 101 to 500) | 101 to 500 | 101 to 500 | 101 to 500
28 | O=C(Nc1ccccn1)NC1CN(C(=O)c2ccc(NS(=O)(=O)c3cccc4cccnc34)cc2)C1 | B (a % activation at 1 μM of from 101 to 500) | 101 to 500 | 101 to 500 | 101 to 500
29 | O=C(Nc1ccccn1)OC1CN(C(=O)c2ccc(NS(=O)(=O)c3cccc4cccnc34)c(F)c2)C1 | B (a % activation at 1 μM of from 101 to 500) | 101 to 500 | 101 to 500 | 101 to 500
30 | CC(C)NC(=O)NC1CN(C(=O)c2ccc(NS(=O)(=O)c3cccc4cccnc34)cc2)C1 | B (a % activation at 1 μM of from 101 to 500) | 101 to 500 | 101 to 500 | 101 to 500
31 | Cc1cc(C(=O)N2CC(NC(=O)NC(C)C)C2)ccc1NS(=O)(=O)c1cccc2cccnc12 | B (a % activation at 1 μM of from 101 to 500) | 101 to 500 | 101 to 500 | 101 to 500
32 | O=C(c1ccc(NS(=O)(=O)c2cccc3cccnc23)cc1)N1CC(=Cc2ccccc2)C1 | A (a % activation at 1 μM of from 1 to 100) | 1 to 100 | 1 to 100 | 1 to 100
